According to patent US20250066341A1 (CHIESI FARMACEUTICI S.P.A., priority 2021, published 2025):

Target: T1, human recombinant LPA1 expressed in CHO cells (Homo sapiens, UniProt Q92633)
T1 construct: expressed in transfected cells; host or cells: CHO cells (CHO-hLPA1 cell line)
Assay: FLIPR calcium mobilization assay, LPA1 antagonism in CHO-hLPA1 cells
Assay type: cell-based
Settings: inhibition of LPA EC80 Ca2+ response, 30 min pre-incubation, expressed as range of activity
Description: The effectiveness of compounds of the present invention as LPA1 antagonist can be determined at the human recombinant LPA1 expressed in CHO cells, using a FLIPR assay in 384 well format.
CHO-hLPA1 cell lines are cultured in a humidified incubator at 5% C02 in DMEM/F-12 (1:1) MIXTURE with 2 mM Glutamax, supplemented with 10% of Foetal Bovine Serum, 1 mM Sodium Pyruvate, 11 mM Hepes and 1× Penicillin/Streptomycin. […] Serial dilutions (1:3 or 1:4, 11 points CRC) of compounds are performed in 100% DMSO at 200× the final concentration. […] The final concentration of DMSO in the assay will be 0.5% in each well. Medium is removed by aspiration and cells are then incubated with 30 μl of a loading solution containing 5 μM of the cytoplasmic Ca2+ indicator Cal-520 AM in Assay Buffer containing 2.5 mM probenecid for 30 min at 37° C. incubator (cell loading). The loaded cell plates are transferred into the FLIPR instrument and calcium responses are monitored during the on-line addition protocols. For testing of compounds, after the cell loading, 10 μl/well of 4× antagonists' solution was added onto the cells. After 30 min pre-incubation (at 37° C.), 10 μl/well of 5× concentrated LPA EC80 was added and Ca2+ mobilization responses was followed during the on-line addition protocol. Intracellular peak fluorescence values subtracted by baseline fluorescence are exported and analysed to determine IC50 values, respectively. The calcium response is expressed as percentage of the maximal inhibition of the EC80 agonist response.
The raw data (peak height expressed as relative fluorescence units) are normalized and transformed into “percent of inhibition”. Curve fitting and pIC50 (−LogIC50) estimations are carried out using a four-parameter logistic model using XLfit Software.

T1 sequence (Q92633 whole entry): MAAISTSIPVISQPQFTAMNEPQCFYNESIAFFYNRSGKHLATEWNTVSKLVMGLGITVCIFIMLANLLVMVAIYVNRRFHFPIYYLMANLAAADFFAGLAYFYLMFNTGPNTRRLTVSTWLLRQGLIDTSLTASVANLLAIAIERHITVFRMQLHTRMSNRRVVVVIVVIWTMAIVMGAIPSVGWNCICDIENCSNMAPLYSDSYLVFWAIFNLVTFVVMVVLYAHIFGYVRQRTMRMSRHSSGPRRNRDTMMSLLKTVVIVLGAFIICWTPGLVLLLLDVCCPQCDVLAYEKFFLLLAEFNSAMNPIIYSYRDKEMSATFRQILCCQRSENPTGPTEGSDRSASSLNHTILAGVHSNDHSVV

Row | IC50 | Structure (SMILES)
1 | < 50 nM | Cc1nc(-c2onc(C)c2NS(=O)(=O)CCCc2ccccc2)ccc1NC(=O)[C@H]1CCCC[C@@H]1C(=O)O [Compound 26, (1S,2S)-2-((2-methyl-6-(3-methyl-4-((3-phenylpropyl)sulfonamido)isoxazol-5-yl)pyridin-3-yl)carbamoyl)cyclohexane-1-carboxylic acid]
2 | 50 to 250 nM | Cc1nc(-c2onc(C)c2NS(=O)(=O)CCc2ccc(F)cc2)ccc1NC(=O)[C@H]1CCCC[C@@H]1C(=O)O [Compound 27]
3 | < 50 nM | Cc1nc(-c2onc(C)c2NS(=O)(=O)CCc2ccc(Cl)cc2)ccc1NC(=O)[C@H]1CCCC[C@@H]1C(=O)O [Compound 28, (1S,2S)-2-((6-(4-((2-(4-chlorophenyl)ethyl)sulfonamido)-3-methylisoxazol-5-yl)-2-methylpyridin-3-yl)carbamoyl)cyclohexane-1-carboxylic acid]
4 | 50 to 250 nM | Cc1nc(-c2onc(C)c2CNC(=O)OCc2ccccc2)ccc1NC(=O)[C@H]1CCCC[C@@H]1C(=O)O [Compound 32, (1S,2S)-2-((6-(4-((((benzyloxy)carbonyl)amino)methyl)-3-methylisoxazol-5-yl)-2-methylpyridin-3-yl)carbamoyl)cyclohexane-1-carboxylic acid]
5 | 250 to 600 nM | Cc1nc(-c2onc(C)c2CNC(=O)O[C@H](C)c2ccccc2)ccc1NC(=O)[C@H]1CCCC[C@@H]1C(=O)O [Compound 35, (1S,2S)-2-((2-methyl-6-(3-methyl-4-(((((R)-1-phenylethoxy)carbonyl)amino)methyl)isoxazol-5-yl)pyridin-3-yl)carbamoyl)cyclohexane-1-carboxylic acid]
6 | < 50 nM | Cc1nc(-c2onc(C)c2CNc2nccc(-c3ccco3)n2)ccc1NC(=O)[C@H]1CCCC[C@@H]1C(=O)O [Compound 41, (1S,2S)-2-((6-(4-(((4-(furan-2-yl)pyrimidin-2-yl)amino)methyl)-3-methylisoxazol-5-yl)-2-methylpyridin-3-yl)carbamoyl)cyclohexane-1-carboxylic acid]

Further lines, the compound ahead of its results:

Row | Structure (SMILES) | IC50
7 | CCOc1ccnc(NCc2c(C)noc2-c2ccc(NC(=O)[C@H]3CCCC[C@@H]3C(=O)O)c(C)n2)n1 [Compound 36, (1S,2S)-2-((6-(4-(((4-ethoxypyrimidin-2-yl)amino)methyl)-3-methylisoxazol-5-yl)-2-methylpyridin-3-yl)carbamoyl)cyclohexane-1-carboxylic acid] | 50 to 250 nM
8 | Cc1nc(-c2onc(C)c2CNc2nccc(-c3cccs3)n2)ccc1NC(=O)[C@H]1CCCC[C@@H]1C(=O)O [Compound 37, (1S,2S)-2-((2-methyl-6-(3-methyl-4-(((4-(thiophen-2-yl)pyrimidin-2-yl)amino)methyl)isoxazol-5-yl)pyridin-3-yl)carbamoyl)cyclohexane-1-carboxylic acid] | < 50 nM
9 | Cc1nc(-c2onc(C)c2CNc2nccc(-c3cccnc3)n2)ccc1NC(=O)[C@H]1CCCC[C@@H]1C(=O)O [Compound 38, (1S,2S)-2-((2-methyl-6-(3-methyl-4-(((4-(pyridin-3-yl)pyrimidin-2-yl)amino)methyl)isoxazol-5-yl)pyridin-3-yl)carbamoyl)cyclohexane-1-carboxylic acid] | < 50 nM
10 | Cc1nc(-c2onc(C)c2CNc2nccc(-c3ccsc3)n2)ccc1NC(=O)[C@H]1CCCC[C@@H]1C(=O)O [Compound 39, (1S,2S)-2-((2-methyl-6-(3-methyl-4-(((4-(thiophen-3-yl)pyrimidin-2-yl)amino)methyl)isoxazol-5-yl)pyridin-3-yl)carbamoyl)cyclohexane-1-carboxylic acid] | < 50 nM
11 | Cc1nc(-c2onc(C)c2CNc2nccc(-c3cccc4ccccc34)n2)ccc1NC(=O)[C@H]1CCCC[C@@H]1C(=O)O [Compound 40, (1S,2S)-2-((2-methyl-6-(3-methyl-4-(((4-(naphthalen-1-yl)pyrimidin-2-yl)amino)methyl)isoxazol-5-yl)pyridin-3-yl)carbamoyl)cyclohexane-1-carboxylic acid] | < 50 nM
